Source: ChEMBL document CHEMBL5154646, “Structure-guided optimization of 1H-imidazole-2-carboxylic acid derivatives affording potent VIM-Type metallo-β-lactamase inhibitors” (Eur J Med Chem, 2022)
Calls of active or inactive are those of the source. No cut-off for these calls is given here.

Assays:
[1] = test system: Escherichia coli; assay: Potentiation of meropenem-induced antibacterial activity against Escherichia coli C1580 expressing VIM-2 assessed as fold reduction in meropenem MIC at 10 ug/ml incubated for 18 to 20 hrs by CLSI based broth microtiter dilution method; assay type: functional; settings: dose 10 µg/ml; time 18-20 hrs
[2] = test system: Escherichia coli; assay: Potentiation of meropenem-induced antibacterial activity against Escherichia coli C1541 expressing IMP-1 assessed as fold reduction in meropenem MIC at 10 ug/ml incubated for 18 to 20 hrs by CLSI based broth microtiter dilution method; assay type: functional; settings: dose 10 µg/ml; time 18-20 hrs
[3] = Toxicity in ICR mouse assessed as effect on histological architecture of heart at 500 to 2000 mg/kg, ip administered for 14 days by hematoxylin and eosin staining based histopathological assay; assay type: organism-based; settings: in vivo, 336 h, dose 500-2000 mg/kg, time 14 day
[4] = test system: Pseudomonas aeruginosa; assay: Potentiation of meropenem-induced antibacterial activity against Pseudomonas aeruginosa W35 expressing VIM-2 assessed as meropenem MIC at 100 ug/ml incubated for 18 to 20 hrs in presence of meropenem by CLSI based broth microtiter dilution method (reference value: 64 ug/ml); assay type: functional; settings: dose 100 µg/ml, time 18-20 hrs
[5] = Tmax in Sprague-Dawley rat at 100 mg/kg, ip by UPLC analysis; assay type: ADME, organism-based; settings: in vivo
[6] = Toxicity in ICR mouse assessed as change in overall appearance at 500 to 2000 mg/kg, ip administered for 14 days; assay type: organism-based; settings: in vivo, 336 h, dose 500-2000 mg/kg, time 14 day
[7] = test system: Pseudomonas aeruginosa; assay: Potentiation of meropenem-induced antibacterial activity against Pseudomonas aeruginosa W35 expressing VIM-2 assessed as fold reduction meropenem MIC at 10 ug/ml incubated for 18 to 20 hrs in presence of meropenem by CLSI based broth microtiter dilution method; assay type: functional; settings: dose 10 µg/ml; time 18-20 hrs
[8] = Toxicity in ICR mouse assessed as effect on histological architecture of spleen at 500 to 2000 mg/kg, ip administered for 14 days by hematoxylin and eosin staining based histopathological assay; assay type: organism-based; settings: in vivo, 336 h, dose 500-2000 mg/kg, time 14 day
[9] = test system: Escherichia coli; assay: Bactericidal activity against Escherichia coli C1580 expressing VIM-2 assessed as induction of bacterial ultrastructural changes by measuring breakdown of cell wall with leakage of cellular contents at 20 ug/ml incubated for 1 hr in presence of meropenem by transmission electron microscopy; assay type: functional, organism-based; settings: dose 20.0 µg/ml
[10] = test system: Escherichia coli; assay: Potentiation of meropenem-induced antibacterial activity against Escherichia coli C1541 expressing IMP-1 assessed as meropenem MIC at 10 ug/ml incubated for 18 to 20 hrs by broth microtiter dilution method (reference value: 32 ug/ml); assay type: functional; settings: dose 10 µg/ml, time 18-20 hrs
[11] = test system: Pseudomonas aeruginosa; assay: Potentiation of meropenem-induced antibacterial activity against Pseudomonas aeruginosa 5621 expressing VIM-2 assessed as meropenem MIC at 100 ug/ml incubated for 18 to 20 hrs in presence of meropenem by CLSI based broth microtiter dilution method (reference value: 64 ug/ml); assay type: functional; settings: dose 100 µg/ml, time 18-20 hrs
[12] = Inhibition of bacterial recombinant full length C-terminal-TEV-His6-tagged VIM-1 expressed in Escherichia coli Transetta using FC-5 as substrate preincubated with enzyme for 10 mins followed by substrate addition by fluorescence based analysis; parameters: species or system Bacteria
[13] = test system: Escherichia coli; assay: Potentiation of meropenem-induced antibacterial activity against Escherichia coli C1542 expressing VIM-2 assessed as fold reduction in meropenem MIC at 10 ug/ml incubated for 18 to 20 hrs by CLSI based broth microtiter dilution method; assay type: functional; settings: dose 10 µg/ml; time 18-20 hrs
[14] = test system: Escherichia coli; assay: Antibacterial activity against Escherichia coli C1580 expressing VIM-2 assessed as elongated and filamentous bacterial cells at 20 ug/ml incubated for 1 hr in presence of meropenem by confocal microscopy; assay type: functional, organism-based; settings: dose 20.0 µg/ml
[15] = Half life in Sprague-Dawley rat at 100 mg/kg, ip by UPLC analysis; assay type: ADME, organism-based; settings: in vivo
[16] = Inhibition of bacterial NDM-1 (1 to 270 residues) expressed in Escherichia coli Transetta (DE3) using FC-5 as substrate preincubated with enzyme for 10 mins followed by substrate addition by fluorescence based analysis; parameters: species or system Bacteria
[17] = test system: Escherichia coli; assay: Potentiation of meropenem-induced antibacterial activity against Escherichia coli C1541 expressing VIM-2 assessed as fold reduction in meropenem MIC at 10 ug/ml incubated for 18 to 20 hrs by CLSI based broth microtiter dilution method; assay type: functional; settings: dose 10 µg/ml; time 18-20 hrs
[18] = test system: Escherichia coli; assay: Bactericidal activity against Escherichia coli C1580 expressing VIM-2 assessed as induction of bacterial ultrastructural changes by measuring cellular debris at 20 ug/ml incubated for 1 hr in presence of meropenem by transmission electron microscopy; assay type: functional, organism-based; settings: dose 20.0 µg/ml
[19] = Toxicity in ICR mouse assessed as mortality at 500 to 2000 mg/kg, ip administered for 14 days; assay type: organism-based; settings: in vivo, 336 h, dose 500-2000 mg/kg, time 14 day
[20] = Toxicity in ICR mouse assessed as change in body weight at 500 to 2000 mg/kg, ip administered for 14 days; assay type: organism-based; settings: in vivo, 336 h, dose 500-2000 mg/kg, time 14 day
[21] = test system: Escherichia coli; assay: Potentiation of meropenem-induced antibacterial activity against Escherichia coli C1580 expressing VIM-2 assessed as meropenem MIC at 10 ug/ml incubated for 18 to 20 hrs by CLSI based broth microtiter dilution method (reference value: 32 ug/ml); assay type: functional; settings: dose 10 µg/ml, time 18-20 hrs
[22] = test system: Escherichia coli; assay: Synergistic antibacterial activity against Escherichia coli C1541 expressing VIM-2 assessed as fractional inhibitory concentration index incubated for 18 to 20 hrs in presence of meropenem and 100 uM of zinc sulfate by checkerboard microdilution assay; assay type: functional; settings: time 18-20 hrs
[23] = test system: Escherichia coli; assay: Synergistic antibacterial activity against Escherichia coli C1541 expressing VIM-2 assessed as fractional inhibitory concentration index incubated for 18 to 20 hrs in presence of meropenem and 1 uM of zinc sulfate by checkerboard microdilution assay; assay type: functional; settings: time 18-20 hrs
[24] = Inhibition of bacterial VIM-2 (27 to 266 residues) expressed in Escherichia coli Transetta (DE3) using FC-5 as substrate preincubated with enzyme for 10 mins followed by substrate addition in presence of 100 uM Zn2+ by fluorescence based analysis; parameters: species or system Bacteria
[25] = Toxicity in ICR mouse assessed as effect on histological architecture of liver at 500 to 2000 mg/kg, ip administered for 14 days by hematoxylin and eosin staining based histopathological assay; assay type: organism-based; settings: in vivo, 336 h, dose 500-2000 mg/kg, time 14 day
[26] = Inhibition of bacterial recombinant full length N-terminal-TEV-His6-tagged VIM-5 expressed in Escherichia coli Transetta using FC-5 as substrate preincubated with enzyme for 10 mins followed by substrate addition by fluorescence based analysis; parameters: species or system Bacteria
[27] = test system: Pseudomonas aeruginosa; assay: Synergistic antibacterial activity against Pseudomonas aeruginosa W35 expressing VIM-2 assessed as fractional inhibitory concentration index incubated for 18 to 20 hrs in presence of meropenem by checkerboard microdilution assay; assay type: functional; settings: time 18-20 hrs
[28] = test system: Escherichia coli; assay: Potentiation of meropenem-induced antibacterial activity against Escherichia coli C1541 expressing VIM-2 assessed as meropenem MIC at 10 ug/ml incubated for 18 to 20 hrs by CLSI based broth microtiter dilution method (reference value: 16 ug/ml); assay type: functional; settings: dose 10 µg/ml, time 18-20 hrs
[29] = Toxicity in ICR mouse assessed as change in behavior at 500 to 2000 mg/kg, ip administered for 14 days; assay type: organism-based; settings: in vivo, 336 h, dose 500-2000 mg/kg, time 14 day
[30] = Inhibition of bacterial IMP-1 (1 to 246 residues) expressed in Escherichia coli Transetta (DE3) using FC-5 as substrate preincubated with enzyme for 10 mins followed by substrate addition by fluorescence based analysis; parameters: species or system Bacteria

O=C(O)c1nccn1Cc1ccncc1
fold change (FC) [1]: 32 | fold change (FC) [2]: 1 | Activity [3]: Non-Toxic | MIC [4]: 4 µg/mL | Tmax [5]: 9 min | Activity [6]: Non-Toxic | fold change (FC) [7]: 4 | Activity [8]: Non-Toxic | Activity [9]: Active | MIC [10]: 32 µg/mL | MIC [11]: 32 µg/mL | IC50 [12]: 29.5 µM | fold change (FC) [13]: >64 | Activity [14]: Active | half-life [15]: 74.4 min | IC50 [16]: > 300 µM | fold change (FC) [17]: >64 | Activity [18]: Active | Activity [19]: Non-Toxic | Activity [20]: Non-Toxic | MIC [21]: 1 µg/mL | fractional inhibitory concentration index (FICI) [22]: 0.05 | fractional inhibitory concentration index (FICI) [23]: 0.05 | IC50 [24]: 1.75 µM | Activity [25]: Non-Toxic | IC50 [26]: 5.78 µM | fractional inhibitory concentration index (FICI) [27]: 0.25 | MIC [28]: < 0.25 µg/mL | Activity [29]: Non-Toxic | IC50 [30]: > 300 µM
